Among the data in publication doi:10.1101/2021.11.30.469594v1 (biorxiv, 2021) are Kd values, retold here.

The assay addresses PRPK/TPRKB complex (also PRPK/PRPKB; PRPK aka TP53RK) (Homo sapiens, UniProt Q96S44). As to the kind of experiment: ITC. The assay is classed as binding.

Like-named read-outs stand apart in the source and are kept apart here.

PRPK/TPRKB complex (also PRPK/PRPKB; PRPK aka TP53RK), sequence (Q96S44 whole entry, other chains not shown): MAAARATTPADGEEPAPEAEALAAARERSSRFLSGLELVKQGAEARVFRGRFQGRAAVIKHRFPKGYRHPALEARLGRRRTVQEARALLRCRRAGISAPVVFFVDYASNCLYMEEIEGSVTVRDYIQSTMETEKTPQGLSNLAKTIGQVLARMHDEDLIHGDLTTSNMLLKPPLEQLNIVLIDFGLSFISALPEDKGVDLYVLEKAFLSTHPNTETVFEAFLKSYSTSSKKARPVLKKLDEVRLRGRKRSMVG

For `Nc1ccc2c(c1)C(=O)N(C1CCC(=O)NC1=O)C2=O` (centres unmarked) [Compound2, 5-amino-2-(2,6-dioxopiperidin-3-yl)isoindoline-1,3-dione], the Kd (usually the free concentration of one partner at which half of the binding sites on the other are occupied at equilibrium, for simple one-to-one binding) is 6.1 ± 0.5 µM. As for `C[C@@]1(N2C(=O)c3cccc(O)c3C2=O)CCC(=O)NC1=O` [DB-A5, (R)-4-hydroxy-2-(3-methyl-2,6-dioxopiperidin-3-yl)isoindoline-1,3-dione], the Kd (pH […] °C, […] DMSO, crystal structure solved here, ATP site) was determined as 1.8 ± 0.4 µM. In turn, `COc1cccc2c1C(=O)N([C@]1(C)CCC(=O)NC1=O)C2=O` [DB-A5-OMe, (R)-4-methoxy-2-(3-methyl-2,6-dioxopiperidin-3-yl)isoindoline-1,3-dione] yielded a Kd greater than 1000 µM.

On to `C[C@]1(N2C(=O)c3cccc(O)c3C2=O)CCC(=O)NC1=O` [DB-B5, (S)-4-hydroxy-2-(3-methyl-2,6-dioxopiperidin-3-yl)isoindoline-1,3-dione], for which the Kd (pH […] °C, […] DMSO) is 27 µM. `O=C1CCC(N2C(=O)c3cccc(O)c3C2=O)C(=O)N1` (centres unmarked) [TXM-01-027-1, 2-(2,6-dioxopiperidin-3-yl)-4-hydroxyisoindoline-1,3-dione] yielded a Kd of 2.2 µM.
